# Measurements as given in US9562899B2, “Method of detecting OXA-048 carbapenemase producing bacteria” (BIOMÉRIEUX, priority 2012, dated 2017).
# What was measured:
# [1] = system: OXA-48 strains; conditions: Livermore et al., cited from earlier work
# [2] = system: KPC, AmpC and MBL strains; conditions: disk comprising 30 μg of temocillin; Rosco; cited from earlier work
# [3] = system: OXA-48 strains; experiment: Temocillin MIC with EDTA in the medium (Example 2); assay type: cell-based, Enterobacteriaceae; conditions: Ex 2, MIC in mg/l
# Source text: (§1) Optimization of the Detection Specificity by Introducing Specific Inhibitors Inhibition of Class B Strains (NDM, VIM, IMP) by Adding EDTA
# (§2) Identical to that used to determine the temocillin MICs by agar dilution (example 1).
# (§3) For each temocillin concentration, the following concentrations of active EDTA will be tested in the form of disodium EDTA: 0, 1.77, 2.12, 2.47 and 2.83 mmol/l.
# (§4) Method: identical to the method used in example 1.
# [4] = system: KPC strains; experiment: Temocillin MIC with EDTA in the medium (Example 2); assay type: cell-based, Enterobacteriaceae; conditions: Ex 2, MIC in mg/l
# Source text: as §1, §2, §3, §4
# [5] = system: AmpC strains; experiment: Temocillin MIC with EDTA in the medium (Example 2); assay type: cell-based, Enterobacteriaceae; conditions: Ex 2, MIC in mg/l
# Source text: as §1, §2, §3, §4
structure (smiles),measurement,setting,value
CO[C@@]1(NC(=O)C(C(=O)O)c2ccsc2)C(=O)N2[C@@H](C(=O)O)C(C)(C)S[C@@H]21 (stereo partly shown) [temocillin],strains resistant to temocillin,[1]; OXA-48 strains,18/19
same,minimum inhibitory concentration (MIC),"[1]; resistant strains, growth at final concentration tested of 128 mg/l",≥ 256 µg/mL
same,inhibition of strains by temocillin disk,[2],"does not inhibit all KPC, AmpC and MBL strains"
same,No. of OXA-48 strains with MIC 150,[3]; 0 mmol/l of EDTA,0
same,No. of OXA-48 strains with MIC 200,[3]; 0 mmol/l of EDTA,0
same,No. of OXA-48 strains with MIC 300,[3]; 0 mmol/l of EDTA,3
same,No. of OXA-48 strains with MIC >300,[3]; 0 mmol/l of EDTA,12
same,No. of OXA-48 strains with MIC ≦50,[3]; 0 mmol/l of EDTA,0
same,No. of OXA-48 strains with MIC 150,[3]; 1.77 mmol/l of active EDTA,0
same,No. of OXA-48 strains with MIC 200,[3]; 1.77 mmol/l of active EDTA,0
same,No. of OXA-48 strains with MIC 300,[3]; 1.77 mmol/l of active EDTA,0
same,No. of OXA-48 strains with MIC >300,[3]; 1.77 mmol/l of active EDTA,15
same,No. of OXA-48 strains with MIC ≦50,[3]; 1.77 mmol/l of active EDTA,0
same,No. of OXA-48 strains with MIC 150,[3]; 2.12 mmol/l of active EDTA,0
same,No. of OXA-48 strains with MIC 200,[3]; 2.12 mmol/l of active EDTA,0
same,No. of OXA-48 strains with MIC 300,[3]; 2.12 mmol/l of active EDTA,0
same,No. of OXA-48 strains with MIC >300,[3]; 2.12 mmol/l of active EDTA,15
same,No. of OXA-48 strains with MIC ≦50,[3]; 2.12 mmol/l of active EDTA,0
same,No. of OXA-48 strains with MIC 150,[3]; 2.47 mmol/l of active EDTA,0
same,No. of OXA-48 strains with MIC 200,[3]; 2.47 mmol/l of active EDTA,0
same,No. of OXA-48 strains with MIC 300,[3]; 2.47 mmol/l of active EDTA,2
same,No. of OXA-48 strains with MIC >300,[3]; 2.47 mmol/l of active EDTA,13
same,No. of OXA-48 strains with MIC ≦50,[3]; 2.47 mmol/l of active EDTA,0
same,No. of OXA-48 strains with MIC 150,[3]; 2.83 mmol/l of active EDTA,1
same,No. of OXA-48 strains with MIC 200,[3]; 2.83 mmol/l of active EDTA,0
same,No. of OXA-48 strains with MIC 300,[3]; 2.83 mmol/l of active EDTA,3
same,No. of OXA-48 strains with MIC >300,[3]; 2.83 mmol/l of active EDTA,8
same,No. of OXA-48 strains with MIC ≦50,[3]; 2.83 mmol/l of active EDTA,3
same,No. of KPC strains with MIC 150,[4]; 0 mmol/l of EDTA,0
same,No. of KPC strains with MIC 200,[4]; 0 mmol/l of EDTA,0
same,No. of KPC strains with MIC 300,[4]; 0 mmol/l of EDTA,0
same,No. of KPC strains with MIC >300,[4]; 0 mmol/l of EDTA,1
same,No. of KPC strains with MIC ≦50,[4]; 0 mmol/l of EDTA,18
same,No. of KPC strains with MIC 150,[4]; 1.77 mmol/l of active EDTA,0
same,No. of KPC strains with MIC 200,[4]; 1.77 mmol/l of active EDTA,0
same,No. of KPC strains with MIC 300,[4]; 1.77 mmol/l of active EDTA,0
same,No. of KPC strains with MIC >300,[4]; 1.77 mmol/l of active EDTA,1
same,No. of KPC strains with MIC ≦50,[4]; 1.77 mmol/l of active EDTA,18
same,No. of KPC strains with MIC 150,[4]; 2.12 mmol/l of active EDTA,0
same,No. of KPC strains with MIC 200,[4]; 2.12 mmol/l of active EDTA,0
same,No. of KPC strains with MIC 300,[4]; 2.12 mmol/l of active EDTA,0
same,No. of KPC strains with MIC >300,[4]; 2.12 mmol/l of active EDTA,1
same,No. of KPC strains with MIC ≦50,[4]; 2.12 mmol/l of active EDTA,18
same,No. of KPC strains with MIC 150,[4]; 2.47 mmol/l of active EDTA,0
same,No. of KPC strains with MIC 200,[4]; 2.47 mmol/l of active EDTA,0
same,No. of KPC strains with MIC 300,[4]; 2.47 mmol/l of active EDTA,0
same,No. of KPC strains with MIC >300,[4]; 2.47 mmol/l of active EDTA,1
same,No. of KPC strains with MIC ≦50,[4]; 2.47 mmol/l of active EDTA,18
same,No. of KPC strains with MIC 150,[4]; 2.83 mmol/l of active EDTA,0
same,No. of KPC strains with MIC 200,[4]; 2.83 mmol/l of active EDTA,0
same,No. of KPC strains with MIC 300,[4]; 2.83 mmol/l of active EDTA,0
same,No. of KPC strains with MIC >300,[4]; 2.83 mmol/l of active EDTA,0
same,No. of KPC strains with MIC ≦50,[4]; 2.83 mmol/l of active EDTA,19
same,No. of AmpC strains with MIC 150,[5]; 0 mmol/l of EDTA,0
same,No. of AmpC strains with MIC 200,[5]; 0 mmol/l of EDTA,0
same,No. of AmpC strains with MIC 300,[5]; 0 mmol/l of EDTA,0
same,No. of AmpC strains with MIC >300,[5]; 0 mmol/l of EDTA,0
same,No. of AmpC strains with MIC ≦50,[5]; 0 mmol/l of EDTA,10
same,No. of AmpC strains with MIC 150,[5]; 1.77 mmol/l of active EDTA,1
same,No. of AmpC strains with MIC 200,[5]; 1.77 mmol/l of active EDTA,0
same,No. of AmpC strains with MIC 300,[5]; 1.77 mmol/l of active EDTA,0
same,No. of AmpC strains with MIC >300,[5]; 1.77 mmol/l of active EDTA,0
same,No. of AmpC strains with MIC ≦50,[5]; 1.77 mmol/l of active EDTA,9
same,No. of AmpC strains with MIC 150,[5]; 2.12 mmol/l of active EDTA,1
